Measurements reported in patent US20240009161A1, “[…] MATERIAL WITH LOW pH AND LOW TOXICITY ACTIVE AGAINST AT LEAST ONE PATHOGEN FOR ADDRESSING PATIENTS WITH RESPIRATORY […]” (priority 2020, published 2024).
Several values for one entry are separate records, joined by “and”; a condition that tells them apart may be missing. Identical values can stand only once. Like-named read-outs stand apart in the source and are kept apart here.

Columns and labels:
[1] = test system: Pseudomonas aeruginosa ATCC BAA-2801; test: ASTM E2315 suspension test, 1 minute; format: cell-based
Method: (§1) In order to assess the antimicrobial efficacy of various acid compounds and combinations, a variety of potential pharmaceutically acceptable fluid formulations within the scope of the present disclosure were evaluated to determine antimicrobial efficacy against common viral, bacterial, and fungal pathogens. These studies were all performed by an ISO 17025 Accredited and GLP Compliant Laboratory. These in vitro tests followed ASTM (American Society of Testing and Materials) standard suspension tests for antimicrobial efficacy. The tests were all performed with a 1-minute contact time based on the pharmacokinetics previously described.
(§2) Purpose: The first set of in vitro efficacy tests were performed on antibiotic resistant Staphylococcus aureus and Pseudomonas aeruginosa bacteria. These two antibiotic resistant bacterial strains were initially selected since these pathogens represent two broad classes of bacteria. S. aureus is gram-positive and P. aeruginosa is gram-negative. Antibiotic resistant strains of each pathogen are considered some of the deadliest respiratory bacterial strains with limited therapeutic options.
(§3) The as-received pH measurements were of the test materials as received by the test laboratory. The ASTM antimicrobial test procedures mix 9 parts test material with 1 part medium containing the pathogen. The as-applied pH is the pH after mixing, which is what is seen by the pathogen. After the test duration, 1 minute for these tests, the test material is neutralized, and the pathogens are counted and compared with the control.

[2] = test system: Staphylococcus aureus ATCC (MRSA) 33591; test: ASTM E2315 suspension test, 1 minute; format: cell-based; conditions: pH 3.1, one minute
Method: as §1, §2, §3

[3] = test system: Streptococcus pneumoniae ATCC 6303; test: ASTM E2315 suspension test, 1 minute; format: cell-based
Method: as §1
Purpose: Streptococcus pneumoniae is a leading cause of bacterial pneumonia, meningitis, and sepsis, and is estimated to have caused approximately 335,000 (240,000-460,000) deaths in children aged <5 years in 2015 globally. Due to the prevalence and mortality of S. pneumoniae a wide range of acid formulations were tested against this common pathogen to determine what variables may affect efficacy. The purpose of the tests performed was to determine what pH is required to achieve 1 log (90%) efficacy in 1 minute against S. pneumoniae using various acid formulations.

SARS-CoV-2 virus = conditions: hard surfaces, 1 minute, 4% concentration, 2.68 pH; cited from earlier work
[4] = test system: Influenza A (H1N1) A/PR/8/34 Strain; format: cell-based, Influenza A virus
[5] = test system: Rhizopus microspores ATCC 52807; test: ASTM E2315 suspension test, 1 minute; format: cell-based; conditions: 1.9 pH
Rhinovirus 37 = test: ASTM E1052 virus suspension test, 1 minute; format: cell-based; conditions: 1.66 and 1.90 pH
[6] = test system: Human Coronavirus, 229E strain, ATCC VR-740; test: ASTM E1052 virus suspension test, 1 minute; format: cell-based
Method: A 1-minute suspension test is considered to be the most representative in vitro test to simulate in vivo efficacy based on previously discussed pharmacokinetics. A 1 log or 90% efficacy target has been chosen with consideration of patient recovery, while minimizing the effective concentration and potential patient risk. In one contemplated method of administration as described in the present disclosure, the material is administered to the patient in need thereof by inhalation by nebulizer. It is contemplated that patients using an inhalation method such as nebulizer administration would be inhaling the therapeutic material comprising a pharmaceutically acceptable fluid as disclosed herein continuously for several minutes in a specific concentration either continuously or in a series of discrete dose intervals with potentially multiple times per day potentially over multiple days. As a result, any reduction in pathogen load in vitro may be compounded in vivo to achieve higher efficacy over the treatment period.
as §1
Purpose: COVID-19 is a global pandemic caused by the SARS-CoV-2 coronavirus. The purpose of these studies was to determine the efficacy of several inorganic acids against the human coronavirus and ascertain the pH required to achieve 1 log efficacy in 1 minute.
SARS-CoV-2 is a beta coronavirus. An alpha coronavirus was used in these studies since this was the closest virus available at the test laboratory. The alpha coronavirus is considered to be representative for efficacy on SARS-CoV-2 for purposes of this investigation.
Due to the larger increase in pH, none of the acids achieved the 1 log efficacy goal.
The EMEM includes live MRC-5 cells which have significant buffer capacity.

[7] = test system: Haemophilus influenza ATCC 8149; test: ASTM E2315 suspension test, 1 minute; format: cell-based; conditions: 1.99 pH
Method: as §1
Three other bacteria and three fungi were selected that represent a wide variety of respiratory pathogens.

[8] = test system: Mycobacterium terrae ATCC 15755; format: cell-based
[9] = test system: Aspergillus fumigatus ATCC 36607; test: ASTM E2315 suspension test, 1 minute; format: cell-based; conditions: 1.9 pH
[10] = test system: Klebsiella pneumoniae ATCC 4532; test: ASTM E2315 suspension test, 1 minute; format: cell-based; conditions: 1.99 pH
L929 mouse cell line = conditions: for Cytotoxicity Grade: mouse

Albuterol sulfate [reference compound]
Effectiveness vs 1 log target ([1]; 3.1 pH): no efficacy | Efficacy as 1 log decrease in pathogen count [2]: no efficacy

Br [hydrobromic acid, Hydrobromic acid]
Effective pH to meet the 1 log efficacy target [3]: 1.90 pH

Cl [hydrochloric acid, Hydrochloric acid]
Effective pH to meet the 1 log efficacy target [3]: approximately 1.87 pH | Efficacy ([3]; 1.98 pH): no little efficacy

CC(=O)O [acetic acid, Acetic acid]
Log efficacy (SARS-CoV-2 virus): 4 log

O=S(=O)(O)O [sulfuric acid, Sulfuric acid]
Log efficacy [4]: > 4 log | Effectiveness [5]: effective | Log efficacy (Rhinovirus 37): > 2 log | Effectiveness ([1]; 1.9 pH, antibiotic resistant strain): effective | Efficacy % [6]: 82.11% | Efficacy at inactivating human coronavirus [6]: provides efficacy at inactivating and/or reducing concentration of human coronavirus | Efficacy log [6]: 0.75 log | In vitro efficacy on human coronavirus [6]: demonstrated in vitro efficacy on human coronavirus | In vitro suspension efficacy, % [6]: 82.11% | In vitro suspension efficacy, log [6]: 0.75 log | Effective pH to meet the 1 log efficacy target [3]: 1.91 pH | Effectiveness ([3]; 1.9 pH): effective | Effectiveness [7]: highly effective | Efficacy % [8]: 25% and 24.56% | Efficacy log [8]: 0.12 log | Effectiveness [9]: effective | Effectiveness [10]: highly effective | Test Results (L929 mouse cell line): No biological reactivity | Cytotoxicity Grade (L929 mouse cell line; 0.12 %): Grade 0 | Cytotoxicity Grade (L929 mouse cell line; 0.18 %): Grade 0 | Cytotoxicity Grade (L929 mouse cell line; 0.3 %): Grade 0 | Cytotoxicity Grade (L929 mouse cell line; […]): Grade 0

Polyphosphoric acid
Effective pH to meet the 1 log efficacy target [3]: approximately 1.85 pH
